Source: publication PMC5829649, “The ribosomal A-site finger is crucial for binding and activation of the stringent factor RelA” (Nucleic Acids Research, 2018)

Key:
RelA [1] = biological target: T1, RelA (Escherichia coli, UniProt P0AG20); test: 3H-GDP conversion to ppGpp by purified RelA with vacant 70S or starved ribosomal complexes, TLC; assay type: biochemical
T1 construct: untagged native full-length RelA
T1 sequence (P0AG20 1-744): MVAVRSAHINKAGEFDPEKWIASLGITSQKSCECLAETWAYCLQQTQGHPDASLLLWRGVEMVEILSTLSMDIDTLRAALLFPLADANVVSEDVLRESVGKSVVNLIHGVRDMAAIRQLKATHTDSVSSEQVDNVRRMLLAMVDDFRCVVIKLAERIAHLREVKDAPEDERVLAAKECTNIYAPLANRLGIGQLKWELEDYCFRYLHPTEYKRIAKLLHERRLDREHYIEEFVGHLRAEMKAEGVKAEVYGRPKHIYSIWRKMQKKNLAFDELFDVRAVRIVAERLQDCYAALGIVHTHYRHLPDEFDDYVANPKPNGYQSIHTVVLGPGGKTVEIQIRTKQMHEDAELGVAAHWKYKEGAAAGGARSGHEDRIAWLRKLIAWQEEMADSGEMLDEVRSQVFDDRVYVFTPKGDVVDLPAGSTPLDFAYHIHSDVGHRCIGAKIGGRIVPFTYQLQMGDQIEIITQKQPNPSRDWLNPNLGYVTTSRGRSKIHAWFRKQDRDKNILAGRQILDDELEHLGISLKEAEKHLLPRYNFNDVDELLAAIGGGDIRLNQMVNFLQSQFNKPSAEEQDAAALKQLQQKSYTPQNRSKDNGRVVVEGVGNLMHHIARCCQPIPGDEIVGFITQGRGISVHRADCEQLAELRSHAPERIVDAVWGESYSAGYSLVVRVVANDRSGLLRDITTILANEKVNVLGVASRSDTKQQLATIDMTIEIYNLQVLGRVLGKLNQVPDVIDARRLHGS

RelA [2] = biological target: T1, RelA; test: 3H-GTP conversion to pppGpp by purified RelA with ribosomes, TLC; assay type: biochemical
RelA [3] = biological target: T1, RelA; test: product of 3H-GDP conversion by purified RelA; added at […] it only mildly modulates activity; assay type: biochemical
RelA [4] = biological target: T1, RelA; test: 3H-ppGpp synthesis assay (TLC) with purified RelA, pppGpp titration (activation), RelA alone or with starved ribosomal complexes; assay type: biochemical
RelA (untagged native) = biological target: T2, RelA (untagged native) (Escherichia coli DH5alpha, UniProt P0AG20 1-744); test: EMSA; 70 nM RNA, up to 60x excess RelA; weak binding (KD above 3 uM) not excluded; HEPES:Polymix buffer, 5 mM Mg2+, pH 7.5, 37 C; details: protein: recombinant; tags: none; hairpin
T2 sequence: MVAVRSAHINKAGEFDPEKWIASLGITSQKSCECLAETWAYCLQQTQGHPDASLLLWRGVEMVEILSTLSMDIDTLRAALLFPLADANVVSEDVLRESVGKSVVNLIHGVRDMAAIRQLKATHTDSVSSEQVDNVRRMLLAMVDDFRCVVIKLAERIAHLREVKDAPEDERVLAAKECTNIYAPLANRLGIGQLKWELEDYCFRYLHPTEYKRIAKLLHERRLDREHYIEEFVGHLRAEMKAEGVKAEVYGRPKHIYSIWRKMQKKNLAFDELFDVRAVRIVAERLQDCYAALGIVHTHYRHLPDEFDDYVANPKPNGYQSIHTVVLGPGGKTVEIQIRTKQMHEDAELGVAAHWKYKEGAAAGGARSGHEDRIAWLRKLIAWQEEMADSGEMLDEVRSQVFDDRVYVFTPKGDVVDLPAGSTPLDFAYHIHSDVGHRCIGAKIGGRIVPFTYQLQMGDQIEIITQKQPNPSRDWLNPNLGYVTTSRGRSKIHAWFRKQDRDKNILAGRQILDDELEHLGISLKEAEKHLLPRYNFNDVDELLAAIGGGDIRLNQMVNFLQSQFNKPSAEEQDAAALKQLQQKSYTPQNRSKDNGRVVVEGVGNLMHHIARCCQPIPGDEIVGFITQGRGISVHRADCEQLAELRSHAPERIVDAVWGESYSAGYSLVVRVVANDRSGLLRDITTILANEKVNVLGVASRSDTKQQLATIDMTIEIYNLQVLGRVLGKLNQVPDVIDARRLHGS

Molecule: Nc1nc2c(ncn2[C@@H]2O[C@H](COP(=O)(O)OP(=O)(O)O)[C@@H](O)[C@H]2O)c(=O)[nH]1 [GDP]
- 3H-GDP conversion to ppGpp by purified RelA with vacant 70S or starved ribosomal (RelA [1]): 1077±62 ppGpp per RelA per minute

Molecule: Nc1nc2c(ncn2[C@@H]2O[C@H](COP(=O)(O)OP(=O)(O)OP(=O)(O)O)[C@@H](O)[C@H]2O)c(=O)[nH]1 [GTP]
- 3H-GTP conversion to pppGpp by purified RelA with ribosomes, TLC (RelA [2]): 896 ± 29 pppGpp reactions per RelA per minute

Molecule: Nc1nc2c(ncn2[C@@H]2O[C@H](COP(=O)(O)OP(=O)(O)O)[C@@H](OP(=O)(O)OP(=O)(O)O)[C@H]2O)c(=O)[nH]1 [ppGpp]
- product of 3H-GDP conversion by purified RelA; added at 100 μM it only mildly mo (RelA [3]): When GTP is used as a substrate, ppGpp acts as a weak inhibitor

Molecule: Nc1nc2c(ncn2[C@@H]2O[C@H](COP(=O)(O)OP(=O)(O)OP(=O)(O)O)[C@@H](OP(=O)(O)OP(=O)(O)O)[C@H]2O)c(=O)[nH]1 [pppGpp]
- EC50 (RelA [4]): 500 to 600 nM

B1: ASF RNA oligonucleotide (23S rRNA H38, 34 nt) (structured_RNA)
RNA: UCGGCAAGGGGGUCAUCCCGACUUACCAACCCGA
- binding result (RelA (untagged native)): no binding
